# Measured values: patent US9296693B2, “Acyl piperidine inhibitors of soluble epoxide hydrolase” (The Regents of the University of California, priority 2010, dated 2016)
# Values joined by “and” are separate entries in the source; they are usually repeats but may differ in a detail not shown here. Equal values may be shown once.
# Columns and labels:
# [1] = Log P determination by HPLC method (OECD guideline 117); format: physicochemical; conditions: octanol/water; read-out: log P (±0.5)
# Description: Log P and purity analyses were performed using a Hewlett Packard 1100 HPLC equipped with a diode array detector. A Phenomenex Luna 150 mm×4.6 mm, 5 μm, C-18 column was used for all HPLC analyses.
# murine sEH = murine sEH (Mus musculus (Mouse), UniProt P34914); assay: fluorescent based IC50 assay (CMNPC substrate), recombinant murine sEH; format: biochemical; conditions: homogenous recombinant murine sEH 1 nM, CMNPC 5 μM, pH 7.0, 30° C., average of three replicates
# Chain of murine sEH (P34914 whole entry): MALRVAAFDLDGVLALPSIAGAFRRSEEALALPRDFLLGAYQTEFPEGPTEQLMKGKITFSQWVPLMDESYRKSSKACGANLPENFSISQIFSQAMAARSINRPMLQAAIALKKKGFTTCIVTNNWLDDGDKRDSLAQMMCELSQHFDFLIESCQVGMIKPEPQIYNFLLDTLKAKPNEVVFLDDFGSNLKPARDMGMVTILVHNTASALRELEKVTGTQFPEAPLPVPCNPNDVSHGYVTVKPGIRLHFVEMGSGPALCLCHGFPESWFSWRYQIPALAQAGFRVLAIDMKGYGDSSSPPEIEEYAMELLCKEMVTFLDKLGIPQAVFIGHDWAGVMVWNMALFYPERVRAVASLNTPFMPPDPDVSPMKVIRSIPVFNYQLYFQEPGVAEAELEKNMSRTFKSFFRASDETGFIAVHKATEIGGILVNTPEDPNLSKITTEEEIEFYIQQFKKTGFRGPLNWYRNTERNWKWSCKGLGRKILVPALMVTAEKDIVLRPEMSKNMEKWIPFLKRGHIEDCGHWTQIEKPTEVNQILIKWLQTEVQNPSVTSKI
# Human sEH = Human sEH (Homo sapiens (Human), UniProt P34913); assay: fluorescent based IC50 assay (CMNPC substrate), recombinant human sEH; conditions: read-out: IC50 (nM) Human; homogenous recombinant human sEH 1 nM, CMNPC 5 μM, pH 7.0, 30° C., average of three replicates;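 further: enzyme preincubated with inhibitor for 5 min before adding substrate, in 25 mM Bis-Tris/HCl buffer supplemented with 0.1 mg/mL BSA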
# Chain of Human sEH (P34913 whole entry): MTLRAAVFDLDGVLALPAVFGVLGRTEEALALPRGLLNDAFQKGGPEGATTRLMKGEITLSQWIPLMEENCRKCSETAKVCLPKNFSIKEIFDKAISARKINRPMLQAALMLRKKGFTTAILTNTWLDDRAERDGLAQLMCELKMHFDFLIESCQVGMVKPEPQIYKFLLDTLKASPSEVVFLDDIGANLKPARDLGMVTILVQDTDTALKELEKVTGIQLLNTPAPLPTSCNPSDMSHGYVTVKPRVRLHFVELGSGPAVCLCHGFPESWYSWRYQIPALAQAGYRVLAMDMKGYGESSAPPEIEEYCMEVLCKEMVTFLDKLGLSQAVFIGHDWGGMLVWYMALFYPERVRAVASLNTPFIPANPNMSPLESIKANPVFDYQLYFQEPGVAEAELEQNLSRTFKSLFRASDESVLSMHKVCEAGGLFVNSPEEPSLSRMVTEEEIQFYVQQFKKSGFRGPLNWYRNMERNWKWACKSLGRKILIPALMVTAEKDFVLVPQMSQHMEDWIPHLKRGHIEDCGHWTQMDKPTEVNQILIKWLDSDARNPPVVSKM
# [2] = log P by shake flask method (OECD guideline 107); format: physicochemical
# [3] = Pharmacokinetic screening of selected haloalkyl-phenyl ureas, blood profiles; format: in vivo; conditions: whole blood
chromatographic logP [1],IC50 (murine sEH),IC50 (Human sEH) [nM],log P [2],AUC [3] [µM·h],Cmax [3] [µM],Tmax [3] [h],half-life [3] [h],Compound
< 0,> 5000 nM and 12000 nM,3800,,,,,,"CCC(=O)N1CCC(NC(=O)Nc2cccnc2)CC1 [Compound 9, 1-(1-Propionylpiperidin-4-yl)-3-(pyridin-3-yl)urea]"
,110 nM,79,1.9,,,,,"CCC(=O)N1CCC(NC(=O)Nc2ccc(F)cc2)CC1 [Compound 24, 1-(4-Fluorophenyl)-3-(1-propionylpiperidin-4-yl)urea]"
,2.7 nM,0.5,2.3,,,,,"O=C(Nc1ccc(OC(F)(F)F)cc1)NC1CCN(C(=O)c2cc(O)c(O)c(O)c2)CC1 [Compound 54, 1-(4-(Trifluoromethoxy)phenyl)-3-(1-(3,4,5-trihydroxybenzoyl)piperidin-4-yl)urea]"
,,,,167,10.9,4,11.9,"O=C(Nc1ccc(C(F)(F)F)cc1)NC1CCN(S(=O)(=O)C2CC2)CC1 [Compound 70, 1-(1-(cyclopropylsulfonyl)piperidin-4-yl)-3-(4-(trifluoromethyl)phenyl)urea]"
,,,,170,10.2,4,10.6,"O=C(Nc1ccc(C(F)(F)F)cc1)NC1CCN(C(=O)C2CC2)CC1 [Compound 61, 1-(1-cyclopropanecarbonylpiperidin-4-yl)-3-(4-(trifluoromethyl)phenyl)urea]"
